Results reported in article PMC11364775, “Ion occupancy of the selectivity filter controls opening of a cytoplasmic gate in the K2P channel TALK-2” (Nature Communications, 2024).
Substitutions are numbered along the chain they refer to. “Also recorded” adds a separate entry of the source. Read-outs that look alike come from different tables or passages of the source. Blank lines part the entries; values can stand above or below the compound they belong to.

Tests used:
[1] = test system: WT TREK-1 channels (human K2P2.1); conditions: TREK-1 WT
Protocol: Oocytes were surgically removed from anesthetized adult females, treated with type II collagenase (Sigma-Aldrich/Merck, Germany) and manually defolliculated. 50 nl of a solution containing the K^+ channel specific cRNA was injected into Dumont stage V - VI oocytes and subsequently incubated at 17 °C in a solution containing (mM): 54 NaCl, 30 KCl, 2.4 NaHCO3, 0.82 MgSO4 x 7 H2O, 0.41 CaCl2, 0.33 Ca(NO3)2 x 4 H2O and 7.5 TRIS (pH 7.4 adjusted with NaOH/HCl) for 1–7 days before use. Electrophysiological recordings: Excised patch measurements in inside-out configuration under voltage-clamp conditions were performed at room temperature (22 – 24 °C). […] Intracellular bath solutions and compounds were applied to the cytoplasmic side of excised patches for the various K^+ channels via a gravity flow multi-barrel pipette system. Intracellular solution had the following composition (in mM): 120 KCl, 10 HEPES, 2 EGTA and 1 Pyrophosphate (pH adjusted with KOH/HCl). In other intracellular bath solutions, K^+ was replaced by Rb^+ (pH 7.4 adjusted with RbOH/HCl). Currents were recorded with an EPC10 amplifier (HEKA electronics, Germany) and sampled at 10 kHz or higher and filtered with 3 kHz (-3 dB) or higher as appropriate for sampling rate.
Recorded currents were analyzed from stable membrane patches at a voltage defined in the respective figure legend or with a voltage protocol as indicated in the respective figure. The fold activation (fold change in (tail) current amplitude) of a ligand (drug or bioactive lipid) was calculated from Eq. 1:1 Fold activationFA=Iactivated/Ibasal where Iactivated represents the stable current level in the presence of a given concentration of a respective ligand and Ibasal the measured current before ligand application. Percentage inhibition or residual currents upon blocker application for a ligand (drug or bioactive lipid) was calculated from stable currents of excised membrane patches using the following Eqs. 2 and 3:2 %inhibition=1−Iinhibited/Ibasal*100 3 Residual current=100−%inhibition where Iinhibited refers to the stable current level recorded in the presence of a given concentration of a drug or bioactive lipid and Ibasal to the measured current before ligand application. The macroscopic half-maximal concentration-inhibition relationship of a ligand was obtained using a Hill-fit for dose-response curves as depicted in Eq. 4:4 %inhibition/activation=Ibase+Imax−Ibase/1+x1/2/x^rate where base and max are the currents in the absence and presence of a respective ligand, x is the concentration of the ligand, x1/2 is the ligand concentration at which the activatory or inhibitory effect is half-maximal, rate is the Hill coefficient.

[2] = molecular target: WT TREK-1 channels (Rattus norvegicus, UniProt Q920B6); conditions: TREK-1 WT
WT TREK-1 channels, sequence (Q920B6 whole entry): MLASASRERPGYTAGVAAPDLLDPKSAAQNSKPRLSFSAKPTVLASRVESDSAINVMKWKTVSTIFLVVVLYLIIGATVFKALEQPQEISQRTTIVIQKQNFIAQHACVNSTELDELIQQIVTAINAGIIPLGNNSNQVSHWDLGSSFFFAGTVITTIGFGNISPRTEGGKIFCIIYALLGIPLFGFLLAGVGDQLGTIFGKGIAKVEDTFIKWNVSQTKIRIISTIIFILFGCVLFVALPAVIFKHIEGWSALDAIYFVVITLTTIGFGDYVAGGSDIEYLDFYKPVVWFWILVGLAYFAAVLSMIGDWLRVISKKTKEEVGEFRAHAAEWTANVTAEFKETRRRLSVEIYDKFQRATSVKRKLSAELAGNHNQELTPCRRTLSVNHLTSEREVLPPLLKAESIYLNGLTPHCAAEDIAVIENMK
Protocol: Data shown are the mean ± s.e.m and the number (n) of repeats of the representative measurements with similar results is indicated in the figure.
Oocytes were surgically removed from anesthetized adult females, treated with type II collagenase (Sigma-Aldrich/Merck, Germany) and manually defolliculated. 50 nl of a solution containing the K^+ channel specific cRNA was injected into Dumont stage V - VI oocytes and subsequently incubated at 17 °C in a solution containing (mM): 54 NaCl, 30 KCl, 2.4 NaHCO3, 0.82 MgSO4 x 7 H2O, 0.41 CaCl2, 0.33 Ca(NO3)2 x 4 H2O and 7.5 TRIS (pH 7.4 adjusted with NaOH/HCl) for 1–7 days before use. Electrophysiological recordings: Excised patch measurements in inside-out configuration under voltage-clamp conditions were performed at room temperature (22 – 24 °C). Patch pipettes were made from thick-walled borosilicate glass GB 200TF-8P (Science Products, Germany), had resistances of 0.2–0.5 MΩ (tip diameter of 10 - 25 µm) and filled with a pipette solution (in mM): 120 KCl, 10 HEPES and 3.6 CaCl2 (pH 7.0 - 8.5 adjusted with KOH/HCl) or 120 KCl, 10 AMPSO and 3.6 CaCl2 (pH 9.0 - 10.5 adjusted with KOH/HCl). Intracellular bath solutions and compounds were applied to the cytoplasmic side of excised patches for the various K^+ channels via a gravity flow multi-barrel pipette system. Intracellular solution had the following composition (in mM): 120 KCl, 10 HEPES, 2 EGTA and 1 Pyrophosphate (pH adjusted with KOH/HCl). In other intracellular bath solutions, K^+ was replaced by Rb^+ (pH 7.4 adjusted with RbOH/HCl). Currents were recorded with an EPC10 amplifier (HEKA electronics, Germany) and sampled at 10 kHz or higher and filtered with 3 kHz (-3 dB) or higher as appropriate for sampling rate.

[3] = molecular target: T1, WT TREK-2 channels (human K2P10.1) (Homo sapiens, UniProt P57789); test: Tail current deactivation kinetics with pore blocker (inside-out patch); format: cell-based
T1 construct: expressed in transfected cells; host or cells: Xenopus laevis oocytes (cRNA injection), excised inside-out patches
T1 sequence (P57789 1-538): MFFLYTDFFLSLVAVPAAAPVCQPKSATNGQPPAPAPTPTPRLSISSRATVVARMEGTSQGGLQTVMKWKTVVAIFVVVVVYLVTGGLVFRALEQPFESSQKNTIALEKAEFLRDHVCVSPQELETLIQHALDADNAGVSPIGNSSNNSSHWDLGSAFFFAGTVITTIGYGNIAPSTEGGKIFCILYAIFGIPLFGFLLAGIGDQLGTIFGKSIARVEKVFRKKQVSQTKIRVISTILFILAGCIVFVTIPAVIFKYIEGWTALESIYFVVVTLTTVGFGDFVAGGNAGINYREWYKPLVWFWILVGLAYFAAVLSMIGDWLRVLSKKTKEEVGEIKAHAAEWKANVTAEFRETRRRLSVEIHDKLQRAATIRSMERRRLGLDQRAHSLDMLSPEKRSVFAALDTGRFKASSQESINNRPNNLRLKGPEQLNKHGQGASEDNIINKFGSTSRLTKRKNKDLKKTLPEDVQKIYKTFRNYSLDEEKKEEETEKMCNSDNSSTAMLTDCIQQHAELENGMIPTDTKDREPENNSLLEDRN

[4] = molecular target: T2, TALK-2 L264A mutant channels (Homo sapiens, UniProt Q96T54, L264A); test: Pore blocker inhibition (dose-response, residual currents) in inside-out patches at +40 mV; format: cell-based; parameters: expressed in transfected cells; host or cells: Xenopus laevis oocytes (cRNA injection), excised inside-out patches
T2 sequence (Q96T54 1-332 L264A): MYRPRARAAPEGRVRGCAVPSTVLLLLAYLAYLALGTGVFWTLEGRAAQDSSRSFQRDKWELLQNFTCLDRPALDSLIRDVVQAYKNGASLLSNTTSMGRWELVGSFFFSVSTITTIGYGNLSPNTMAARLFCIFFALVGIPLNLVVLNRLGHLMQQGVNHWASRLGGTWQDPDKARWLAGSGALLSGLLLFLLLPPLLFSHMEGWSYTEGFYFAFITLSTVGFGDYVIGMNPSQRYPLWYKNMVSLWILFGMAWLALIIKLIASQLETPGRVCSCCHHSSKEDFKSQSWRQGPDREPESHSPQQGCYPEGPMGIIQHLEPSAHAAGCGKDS
Protocol: Data shown are the mean ± s.e.m and the number (n) of independent experiments and repeats of representative measurements with similar results is indicated in the figure.
Electrophysiological recordings: Excised patch measurements in inside-out configuration under voltage-clamp conditions were performed at room temperature (22 – 24 °C). Patch pipettes were made from thick-walled borosilicate glass GB 200TF-8P (Science Products, Germany), had resistances of 0.2–0.5 MΩ (tip diameter of 10 - 25 µm) and filled with a pipette solution (in mM): 120 KCl, 10 HEPES and 3.6 CaCl2 (pH 7.0 - 8.5 adjusted with KOH/HCl) or 120 KCl, 10 AMPSO and 3.6 CaCl2 (pH 9.0 - 10.5 adjusted with KOH/HCl). Intracellular bath solutions and compounds were applied to the cytoplasmic side of excised patches for the various K^+ channels via a gravity flow multi-barrel pipette system. Intracellular solution had the following composition (in mM): 120 KCl, 10 HEPES, 2 EGTA and 1 Pyrophosphate (pH adjusted with KOH/HCl). In other intracellular bath solutions, K^+ was replaced by Rb^+ (pH 7.4 adjusted with RbOH/HCl). Currents were recorded with an EPC10 amplifier (HEKA electronics, Germany) and sampled at 10 kHz or higher and filtered with 3 kHz (-3 dB) or higher as appropriate for sampling rate.
Data analysis and statistics were done using Fitmaster (HEKA electronics, version: v2x73.5, Germany), Microsoft Excel 2021 (Microsoft Corporation, USA), and Igor Pro 9 software (WaveMetrics Inc., USA). Recorded currents were analyzed from stable membrane patches at a voltage defined in the respective figure legend or with a voltage protocol as indicated in the respective figure. […] Percentage inhibition or residual currents upon blocker application for a ligand (drug or bioactive lipid) was calculated from stable currents of excised membrane patches using the following Eqs. 2 and 3:2 %inhibition=1−Iinhibited/Ibasal*100 3 Residual current=100−%inhibition where Iinhibited refers to the stable current level recorded in the presence of a given concentration of a drug or bioactive lipid and Ibasal to the measured current before ligand application.

[5] = molecular target: T3, WT TALK-2 channels (Homo sapiens, UniProt Q96T54); test: Tail current deactivation kinetics with pore blocker (inside-out patch); format: cell-based; parameters: expressed in transfected cells; host or cells: Xenopus laevis oocytes (cRNA injection), excised inside-out patches
T3 sequence (Q96T54 1-332): T2 sequence (Q96T54 1-332 L264A) with A264L
Source text: In voltage-gated K^+ (Kv) channels, the closing of the lower gate can be prevented by the binding of blockers such as tetra-pentyl-ammonium (TPenA) in the pore cavity and, thereby, causing a slowing of the deactivation kinetics which is known as the ‘foot in the door’ effect[33],[34]. To test for such a mechanism in TALK-2, we activated the channels with a voltage step to +100 mV in the presence of intracellular Rb^+ followed by a repolarization step to -80 mV (to induce tail currents) with and without the K2P channel pore blocker TPenA. […] We hypothesize, that the two gates are strongly coupled and, therefore, opening the SF gate by depolarization should also open the lower gate, which then consequently would allow blocker (like TPenA) binding within the pore cavity (Fig. 5a cartoon). Upon repolarization, however, the bound TPenA blocker obstructs closure of the lower gate and thereby, hinders the SF from closure/inactivation (gate coupling).

[6] = molecular target: T4, WT TALK-2 channels (human K2P17.1) (Homo sapiens, UniProt Q96T54); parameters: expressed in transfected cells; host or cells: Xenopus laevis oocytes (cRNA injection), excised inside-out patches; method as in PMID 34928298; conditions: cited from earlier work
T4 sequence (Q96T54 1-332): T2 sequence (Q96T54 1-332 L264A) with A264L

- Rb+-induced current ([2]; 0.001 mM 2-APB): 2.62 nA
- Rb+-induced current ([2]; 0.01 mM 2-APB): 2.54 nA
- Rb+-induced current ([2]; 0.1 mM 2-APB): 1.29 nA
- Rb+-induced current ([2]; 0.5 mM 2-APB): -0.03 nA
- Rb+-induced current ([2]; 1.0 mM 2-APB): -0.44 nA
- Rb+-induced current ([2]; 2.0 mM 2-APB): 0.00 nA
SMILES: NCCOB(c1ccccc1)c1ccccc1 [2-APB, 2-aminoethoxydiphenyl borate]
- Normalized currents ([1]; 0.1 µM 2-APB): 0.03
- Normalized currents ([1]; 1 µM 2-APB): 0.04
- Normalized currents ([1]; 10 µM 2-APB): 0.08
- Normalized currents ([1]; 100 µM 2-APB): 0.28
- Normalized currents ([1]; 200 µM 2-APB): 0.47
- Normalized currents ([1]; 500 µM 2-APB): 0.80
- Normalized currents ([1]; 1000 µM 2-APB): 0.97
- Normalized currents ([1]; 2000 µM 2-APB): 0.99

SMILES: CCCCC[N+](CCCCC)(CCCCC)CCCCC [TPenA, Tetra-pentyl-ammonium chloride]
- effect of TPenA inhibition on tail current kinetics ([3]; TREK-2): no effect
- deactivation time constant τ of tail currents ([3]; intracellular Rb+ with 50 µM TPenA): 11.2 ± 1.4 ms
- IC50 [4]: 459 ± 58 µM
- Residual currents with 1 mM TPenA ([4]; TALK-2 L264A, +40 mV): 29.31%
- Normalized currents ([4]; TALK-2 L264A, 1 µM TPenA): 0.99
- Normalized currents ([4]; TALK-2 L264A, 10 µM TPenA): 0.97
- Normalized currents ([4]; TALK-2 L264A, 100 µM TPenA): 0.77
- Normalized currents ([4]; TALK-2 L264A, 1000 µM TPenA): 0.32
- Normalized currents ([4]; TALK-2 L264A, 4000 µM TPenA): 0.17
- effect of TPenA inhibition on tail current kinetics ([5]; 2-APB-activated TALK-2 (1.0 mM 2-APB, 1.0 mM TPenA)): no effect; also recorded: little effect
- deactivation time constant τ of tail currents ([5]; intracellular Rb+ with 1.0 mM TPenA, step to +100 mV, repolarization to -80 mV): 7.4 ± 0.4 ms
- TPenA block of the tail current amplitudes ([5]; intracellular Rb+, tail currents at -80 mV): ~ 50%
- slowing of the deactivation kinetics ([5]; with ~50 % TPenA block, intracellular Rb+): ~ 2.5 fold

SMILES: CCCCCCCC/C=C\CCCCCCCC(=O)SCCNC(=O)CCNC(=O)[C@H](O)C(C)(C)COP(=O)(O)OP(=O)(O)OC[C@H]1O[C@@H](n2cnc3c(N)ncnc32)[C@H](O)[C@@H]1OP(=O)(O)O [oleoyl-CoA]
- increase of channel activity [6]: more than 100 fold
